{"source": "patent US9109048B2", "about": "“Inhibition of tumor growth” (priority 1998, dated 2015)", "key": {"[1]": {"system": "Escherichia coli ATCC 25922", "assay": "MIC (minimum inhibitory concentration) test, microdilution", "assay_type": "cell-based", "details": "Table 1, value in parentheses", "method_in_brief": "(§1)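 MIC values came from a standard microdilution method using mid-log bacteria at 2×10^6 CFU/ml in 1% Bacto Peptone water. HPLC confirmed actual peptide concentrations in solution, given possible adherence of the cationic peptides to plastic.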"}, "[2]": {"system": "Staphylococcus aureus ATCC 25923", "assay": "MIC (minimum inhibitory concentration) test, microdilution", "assay_type": "cell-based", "details": "Table 1, value in parentheses", "method_in_brief": "as §1"}, "[3]": {"system": "human promyelotic leukemia cell line HL 60", "assay": "Cytotoxicity on HL 60 cells, MTT", "assay_type": "cell-based", "procedure": "HL 60 cells, 1×10^4 were incubated with peptides 50, 30, 20, 10, 5, 1 μg, 1000-20 μg/ml in 2 hours and coloured with MTT;"}, "Meth A fibrosarcoma": {"system": "Meth A fibrosarcoma", "assay": "Tumor regression, murine Meth A fibrosarcoma", "assay_type": "in vivo, mice", "procedure": "Specific pathogen-free CB6F1 (Balb/c×C57 BL/6) female mice of about 8 weeks of age were obtained from Charles River (Germany). The mice were kept on standard laboratory chow and water. Tumor bearing mice were serologically screened for viral (LDH, CMV) and mycoplasmic infection and in all cases tested negative.\nAfter a single inoculation of 5×10^7 viable Meth A cells, different LF peptides were injected intratumorally (LFB-14-31, LFB 17-31 Pmc, 500 μg in a 50 μl dose; LFB 17-31, 1000 μg in a 50 μl dose), on day 7 and day 10. LFB 14-31 was also injected intraperitoneally (PBI), 500 μg/ml. Saline only was injected in the control mice (50 μl) (K1,K2,K3). The tumor diameter (mean of transversal and longitudinal) were measured with an electronic calipper."}, "C26 colon carcinoma": {"system": "C26 colon carcinoma", "assay": "Murine C26 colon carcinoma model", "assay_type": "in vivo, Balb/c mice", "procedure": "The antitumoral activity of the peptide, Ad-LFB 14-31 A2,3,6,10,17,F7,R4,K11,L14-NH2, (NDDO1) was tested in a murine C26 colon carcinoma model established in syngenic Balb/c mice. C26 cells (5×10^6 cells in 50 μl) cells were inoculated subcutaneously on the abdomen of the mice (3 animals) and grown into proper size (20-30 mm^2) before treatment start. At day 7 the tumors were treated intra-tumorally with 0.5 mg/50 μl peptide once a day for three consecutive days and the progression was followed. […] In this mouse C26 tumor cells (5×10^6 cells in 50 μl) were re-inoculated subcutaneously three weeks after peptide treatment."}, "[4]": {"system": "Meth A cells (murine sarcoma cell line)", "assay": "Cytotoxicity on Meth A cells, MTT method", "procedure": "Peptide solutions (0.1 ml) were added and the plates incubated at 37° C. for 30 minutes, 4 hours or 24 hours. The cytotoxicity was measured using the MTT method (Mosmann et al., J. Immunol. (1986) 136, 2348-2357).\nCells in the growth phase were harvested and washed in fresh medium and injected subcutaneously into the abdominal region of the mice.\nThe cytotoxic effect of the peptides on different murine and human tumor cells were measured using the MTT method (Mosmann et al., J. Immunol. (1986) 136, 2348-2357).\nMTT is a soluble tetrazolium salt yielding a yellow solution when prepared in media or salt solutions lacking phenol red. Dissolved MTT is converted to an insoluble purple formazan by cleavage of the tetrazolium ring by dehydrogenase enzymes. This water insoluble formazan can be solubilized using isopropanol or other solvents and the dissolved material is measured spectrophotometrically. The absorbance was measured as a function of concentration of converted dye.\nCells were maintained in […] medium containing 10% FBS, 1% L-glutamine and 0.1% penicillin and streptomycin. Cells to be used in the assay were grown to confluency, trypsinated and split to single cell suspension, counted and centrifuged at 1500 rpm for 10 min. […][…] of cell suspension was transferred to each well on a 96-well microtiter plate. The cells were stimulated by adding […] of various concentrations of peptides diluted with assay medium to each well. The final concentrations of peptide were for example: 5, 10, 20, 40, 60, 80, 100, and 200 mg/ml. […] As a negative control only medium was added to the cells, and as a positive control (100% killing) 1% triton X-100 was added. Following an incubation period of 4 h., 20 ml MTT dissolved in PBS at a concentration of 5 mg/ml was added to each well, and the plate was incubated further for 2 h. 130 ml of the supernatant were then removed and […] acid alcohol (0.04-0.1 N HCl in isopropanol) added to each well to dissolve the dark blue crystals. The plate was placed on a shaker for 1 h and read spectrophotometrically at 590 nm in a microtiterplate reader using the Softmaxâ program."}, "[5]": {"system": "A20 B-cell lymphoma tumor", "assay": "Re-inoculation of A20 cells after successful peptide treatment", "assay_type": "in vivo, Balb/c mice", "details": "no further administration of peptides", "from_the_text": "b) Mice in which a A20 B-cell lymphoblast tumor had successfully been eradicated as described above were re-inoculated with 5×10^6 cells of A20 B-cell lymphoma tumor. Untreated mice served as a negative control. No further administration of peptides or any other anti-tumor agents took place."}, "Meth A tumor cells": {"system": "Meth A tumor cells", "assay": "Reinoculation of Meth A cells after successful treatment", "assay_type": "in vivo, mice", "details": "reinoculation 1 month after successful treatment, no further treatment"}, "[6]": {"system": "A20 B-cell lymphoblastoma", "assay": "Adoptive transfer of spleen cells from cured mice", "assay_type": "in vivo, Balb/c mice", "details": "donors cured with the peptide; versus naive donors", "procedure": "Syngenic Balb/c mice were selected as a model system to investigate the long-term anti-tumor immunity conferred by an initial treatment with a lytic peptide (H2N-WKKWdipKKWK-COOH—Mod 39 (SEQ ID NO: 42)) against A20 B-cell lymphoblastoma. Tumour cells (5×10^6) were inoculated subcutaneously on the abdomen of the mice and grown into proper size (20-30 mm^2) before treatment start. The mice were treated intra-tumorally with 0.5 mg/50 μl peptide once a day for three consecutive days and the progression was followed. Mice that were successfully treated were selected as donors (treated donor) for adoptive transfer of spleen cells, 3 weeks after tumor eradication.\nDay 1—Naive acceptor mice were subjected to a Total Body Irradiation (TBI) of 500 cGy in preparation for receiving adoptive transfer of immune cells from spleen donors.\nDay 2—Single-cell suspensions of spleenocytes depleted of red blood cells from treated donor mice and naïve mice were prepared as previously described (Ward, B. A. et al., J. Immunology Aughust 1988, vol 141 p 1047), except that sterile H2O was used instead of ammonium chloride to eliminate red blood cells.\nDonor spleen cells (approximately 40 million) were injected i.v. into the tail vein of acceptor mice according to the methods described in Bogen B. et al., Eur J Immunology, May 1983, vol 13(5), pages 353-359. […]"}, "[7]": {"assay_type": "physicochemical", "from_the_text": "Peptide W3714, with three additional tryptophan residues (a total of five tryptophan residues in the peptide), has decreased activity. […] This has been physically observed during MIC testing procedures when the peptide tended to precipitate at high concentrations."}, "[8]": {"details": "injected intratumorally on day 7 and day 10"}}, "note": "Where two headings read alike, the source gives them in different places. Square brackets hold non-standard residues; d marks the D form. Bip = N[C@@H](Cc1ccc(-c2ccccc2)cc1)C(=O)O"}
{"compound": "CSCC[C@H](NC(=O)[C@H](CCCNC(=N)N)NC(=O)[C@H](Cc1c[nH]c2ccccc12)NC(=O)[C@H](CCC(N)=O)NC(=O)[C@H](Cc1c[nH]c2ccccc12)NC(=O)[C@H](CCCNC(=N)N)NC(=O)[C@H](CCCNC(=N)N)NC(=O)[C@H](CSCNC(C)=O)NC(=O)[C@H](CCCCN)NC(=O)[C@H](Cc1ccccc1)NC(=O)[C@H](Cc1c[nH]c2ccccc12)NC(=O)[C@H](CCC(=O)O)NC(=O)[C@@H]1CCCN1)C(=O)N[C@@H](CCCCN)C(=O)N[C@@H](CCCCN)C(=O)N[C@@H](CC(C)C)C(=O)NCC(=O)N[C@@H](C)C(=O)O", "note": "[LFB 14-31]", "values": [{"measurement": "Minimum inhibitory concentration (MIC) E. coli ATCC 25922", "setting": "[1]", "value": 28, "unit": "µM"}, {"measurement": "Minimum inhibitory concentration (MIC) S. aureus ATCC 25923", "setting": "[2]", "value": 80, "unit": "µM"}, {"measurement": "cytotoxic effect on human HL 60 cells", "setting": "[3]", "value": "no cytotoxic effect"}, {"measurement": "effect on Meth A tumors", "setting": "Meth A fibrosarcoma; [8]", "value": "induced regression of the Meth A tumors"}, {"measurement": "effect on Meth A tumors", "setting": "Meth A fibrosarcoma; treated intraperitoneally", "value": "tumors were also eradicated"}]}
{"compound": "CSCC[C@H](NC(=O)[C@H](CCCNC(=N)N)NC(=O)[C@H](Cc1c[nH]c2ccccc12)NC(=O)[C@H](CCC(N)=O)NC(=O)[C@H](Cc1c[nH]c2ccccc12)NC(=O)[C@H](CCCNC(=N)N)NC(=O)[C@H](CCCNC(=N)N)NC(=O)[C@H](CSCNC(C)=O)NC(=O)[C@H](CCCCN)NC(=O)[C@@H](N)Cc1ccccc1)C(=O)N[C@@H](CCCCN)C(=O)N[C@@H](CCCCN)C(=O)N[C@@H](CC(C)C)C(=O)NCC(=O)N[C@@H](C)C(=O)O", "note": "[LFB 17-31, H2N-Phe-Lys-Cys-Arg-Arg-Trp-Gln-Trp-Arg-Met-Lys-Lys-Leu-Gly-Ala-COOH]", "values": [{"measurement": "Minimum inhibitory concentration (MIC) E. coli ATCC 25922", "setting": "[1]", "value": 20, "unit": "µM"}, {"measurement": "Minimum inhibitory concentration (MIC) S. aureus ATCC 25923", "setting": "[2]", "value": 50, "unit": "µM"}, {"measurement": "cytotoxic effect on human HL 60 cells", "setting": "[3]; FIG. 7, concentrations tested", "value": "no cytotoxic effect"}, {"measurement": "effect on Meth A tumors", "setting": "Meth A fibrosarcoma; [8]", "value": "induced regression of the Meth A tumors"}]}
{"compound": "Ad-LFB 14-31 A2,3,6,10,17,F7,R4,K11,L14-NH2 [NDDO1]", "values": [{"measurement": "primary effect on C26 colon carcinoma", "setting": "C26 colon carcinoma; 3 animals, 0.5 mg/50 μl intra-tumorally once a day for three days", "value": "In one mouse full tumor regression was obtained"}, {"measurement": "effect of re-inoculating C26 cells", "setting": "C26 colon carcinoma; re-inoculated three weeks after peptide treatment, no further treatment", "value": "A regression of the tumor after an initial growth was obtained without any further treatment"}]}
{"compound": "H2N-FKCRRWQWRMKKLGAPSITCVRRAF-COOH (H-FKCRRWQWRMKKLGAPSITCVRRAF-OH; ends and bridges not checked) [Cyclic LFB, enzymatically cleaved fragment of bovine lactoferrin, from Morinaga, reference compound]", "values": [{"measurement": "concentration at which Meth A cells were effectively killed", "setting": "[4]; Meth A cells 1×10^4/ml, 4 h incubation (FIG. 2)", "value": "higher than 0.8 mg/ml"}, {"measurement": "Meth A cells killed", "setting": "[4]; at concentrations higher than 0.8 mg/ml", "value": "more than 99%"}, {"measurement": "tumor growth after re-inoculation of A20 cells", "setting": "[5]", "value": "no further growth occurred"}, {"measurement": "tumor establishment after reinoculation of Meth A cells", "setting": "Meth A tumor cells", "value": "some storm of adaptive immunity is shown"}]}
{"compound": "H2N-KAAKKAbipKAAKAbipKKAA-COOH (H-KAAKKA[Bip]KAAKA[Bip]KKAA-OH; SMILES C[C@H](NC(=O)[C@H](C)NC(=O)[C@H](CCCCN)NC(=O)[C@H](CCCCN)NC(=O)[C@H](Cc1ccc(-c2ccccc2)cc1)NC(=O)[C@H](C)NC(=O)[C@H](CCCCN)NC(=O)[C@H](C)NC(=O)[C@H](C)NC(=O)[C@H](CCCCN)NC(=O)[C@H](Cc1ccc(-c2ccccc2)cc1)NC(=O)[C@H](C)NC(=O)[C@H](CCCCN)NC(=O)[C@H](CCCCN)NC(=O)[C@H](C)NC(=O)[C@H](C)NC(=O)[C@@H](N)CCCCN)C(=O)O) [Peptide C12]", "values": [{"measurement": "time until the re-inoculated A20 tumor completely disappeared", "setting": "[5]", "value": 6, "unit": "days"}]}
{"compound": "H2N-WKKWdipKKWK-COOH [L-Mod 39]", "values": [{"measurement": "time until the re-inoculated A20 tumor completely disappeared", "setting": "[5]", "value": 10, "unit": "days"}]}
{"compound": "H2N-WKKWdipKKWK-COOH [Model 39]", "values": [{"measurement": "rejection of implanted A20 tumors in acceptors of spleen cells from cured mice", "setting": "[6]", "value": "able to reject implanted tumors"}]}
{"compound": "H-FKWRRWWWRMKKLWA-OH [LFBW3,7,14, H2N-Phe-Lys-Trp-Arg-Arg-Trp-Trp-Trp-Arg-Met-Lys-Lys-Leu-Trp-Ala-COOH]", "values": [{"measurement": "solubility in aqueous solutions", "setting": "[7]", "value": "less soluble in aquous solutions"}]}
